Experimental data published in patent publication US20250051355A1, “COMPOUNDS, COMPOSITIONS, AND METHODS” (ACONCAGUA BIO, INC., priority 2023, published 2025).
pEC50: −log10 of the molar value.

Tests used:
[1] = target: human calcitonin receptor (CTR) and RAMP3 (AMY3) (Homo sapiens, UniProt O60896+P30988); assay: Amylin Receptor cAMP Assay I; type: cell-based; details: COS-7/AMY3 cells, cAMP Hi-range Kit, read-out: Amylin Receptor cAMP Stimulation Activity: EC50
Text: Amylin Receptor cAMP Assay I
AMYRs are heterodimers of the class B calcitonin (CT) G-protein-coupled receptor (CTR) and receptor activity-modifying proteins (RAMPs). All three RAMPs can interact with the CTR and form AMY1, AMY2, AMY3 with RAMP1, RAMP2 and RAMP3, respectively. Like other class B1 GPCRs, the CT receptor family is canonically coupled to Gs-mediated cAMP production, and measurement of cAMP accumulation has been the primary assay used to determine peptide selectivity and potency.
To optimize functional activity directed toward Gas coupling, COS-7 cells were stably transfected with human calcitonin receptor (CTR) and RAMP3, simultaneously. 100×concentration of compound working solutions were prepared (Agilent Technologies Bravo) with 4-fold serial dilution in 384-well Echo LDV plate (Labcyte, Cat #LP-0200). 100 nL/well 100× concentration of compound working solutions were moved to 384-well white low volume plate (Greiner, Cat #784075) using Labcyte ECHO550. 1×10^5 cells/mL COS-7/CTR or COS-7/AMY3 (HD Biosciences) cell suspensions prepared with assay buffer [DPBS containing 0.5 mM IBMX (Sigma, Cat #15879) and 0.1% BSA (GENVIEW, Cat #FAO16-100 g)], 10 μL cell suspensions were added to each well of previous generated assay plate which already contains 100 nL compound at 100× concentration using ThermoFisher Multidrop Combi (1000 cells/well). Seal the plate and incubate at 37° C. with 5% CO2 for 30 min.
After incubation, the cAMP assay signal was generated using cAMP Hi-range Kit (Cisbio). 5 μL cAMP-d2 working solution was added to each well, followed by 5 μL Anti-cAMP antibody-cryptate working solution which was added to each well using ThermoFisher Multidrop Combi. The samples were then incubated at room temperature for 1 hour protected from light. the fluorescence was read at 665 and 615 nm with Reader PerkinElmer EnVision.

[2] = target: T1, human calcitonin receptor (CTR) (Homo sapiens, UniProt P30988); assay: Calcitonin receptor (CTR) cAMP Assay; type: cell-based; details: COS7-human CTR Clone #2 cells, cAMP dynamic 2 kit; read-out: Calcitonin Receptor cAMP Stimulation Activity: EC50
T1 construct: expressed in transfected cells; host or cells: COS-7 (COS7-human CTR Clone #2)
T1 sequence (P30988 25-474): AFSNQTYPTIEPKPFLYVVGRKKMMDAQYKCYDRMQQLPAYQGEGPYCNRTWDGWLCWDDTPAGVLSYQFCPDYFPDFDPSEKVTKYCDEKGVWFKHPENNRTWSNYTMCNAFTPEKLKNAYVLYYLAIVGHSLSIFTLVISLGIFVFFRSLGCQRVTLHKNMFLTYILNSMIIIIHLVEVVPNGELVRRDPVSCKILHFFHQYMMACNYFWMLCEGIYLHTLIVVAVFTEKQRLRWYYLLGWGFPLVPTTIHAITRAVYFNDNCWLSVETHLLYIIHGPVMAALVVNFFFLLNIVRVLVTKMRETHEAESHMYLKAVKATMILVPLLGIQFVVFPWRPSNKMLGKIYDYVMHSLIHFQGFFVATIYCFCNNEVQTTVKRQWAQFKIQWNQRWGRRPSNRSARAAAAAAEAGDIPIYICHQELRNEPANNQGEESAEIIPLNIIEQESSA
Summary of the method: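 COS-7 cells stably expressing human CTR (2000 cells/well) treated with 4-fold serially diluted compounds in HBSS/20 mM HEPES/0.5 mM IBMX/0.1% casein, 30 min at 37° C. cAMP quantified by HTRF (cAMP-d2 plus anti-cAMP cryptate, 1 h RT), fluorescence read at 665 and 615 nm.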

Chain of human calcitonin receptor (CTR) and RAMP3 (AMY3) (O60896 24-148, one chain of several): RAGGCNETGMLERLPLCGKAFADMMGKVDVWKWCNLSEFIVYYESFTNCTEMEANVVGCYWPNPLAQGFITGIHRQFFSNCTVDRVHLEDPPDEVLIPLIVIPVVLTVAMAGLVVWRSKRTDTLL

Compound: Cc1nnc(-c2c(CCc3ccc(F)cc3F)nc3c(c2-c2ccc(C(=O)NCc4ccc(F)c(F)c4)s2)C(=O)N2CCC[C@@H]32)o1 [Compound 42, 5-[(9aS)-2-[2-(2,4-difluorophenyl)ethyl]-3-(5-methyl-1,3,4-oxadiazol-2-yl)-5-oxo-7,8,9,9a-tetrahydropyrido[2,3-a]pyrrolizin-4-yl]-N-[(3,4-difluorophenyl)methyl]thiophene-2-carboxamide]
- pEC50 [1]: 6.94
- pEC50 [2]: 7.85

Compound: Cc1nnc(-c2c(CCc3ccc(F)cc3)nc3c(c2-c2ccc(C(=O)NCc4ccc(F)c(F)c4)s2)C(=O)N[C@@H]3C(C)C)o1 [Compound 2, N-(3,4-difluorophenyl)methyl-5-((R)-5-[2-(p-fluorophenyl)ethyl]-3-isopropyl-6-(5-methyl-1,3,4-oxadiazol-2-yl)-1-oxo-2,4-diaza-7-indanyl}-2-thenamide]
- pEC50 [1]: 7.48
- pEC50 [2]: 8.15

Compound: Cc1nnc(-c2c(CCc3ccc(F)cc3)nc3c(c2-c2ccc(C(=O)NCc4ccc(F)c(F)c4)s2)c(=O)n2n3CCC2)o1 [Compound 15, N-(3,4-difluorophenyl)methyl-5-(11-[2-(p-fluorophenyl)ethyl]-10-(5-methyl-1,3,4-oxadiazol-2-yl)-7-oxo-2,6,12-triazatricyclo[6.4.0.0^2,6]dodeca-1(12),8,10-trien-9-yl}-2-thenamide]
- pEC50 [1]: 7.05
- pEC50 [2]: 7.77

Compound: Cc1nnc(-c2c(CCc3ccc(F)cc3)nc3c(c2-c2ccc(C(=O)NCc4ccc(F)c(F)c4)s2)S(=O)(=O)CC3C(C)C)o1 (stereo not shown) [Compound 19, N-(3,4-difluorobenzyl)-5-(5-(4-fluorophenethyl)-3-isopropyl-6-(5-methyl-1,3,4-oxadiazol-2-yl)-1,1-dioxido-2,3-dihydrothieno[3,2-b]pyridin-7-yl)thiophene-2-carboxamide]
- pEC50 [1]: 7.60
- pEC50 [2]: 8.28

Compound: Cc1nnc(-c2c(CCc3ccc(F)cc3)nc3c(c2-c2ccc(C(=O)NCc4ccc(F)c(F)c4)s2)C(=O)N[C@H]3C(C)C)o1 [Compound 1, N-(3,4-difluorophenyl)methyl-5-{(S)-5-[2-(p-fluorophenyl)ethyl]-3-isopropyl-6-(5-methyl-1,3,4-oxadiazol-2-yl)-1-oxo-2,4-diaza-7-indanyl)-2-thenamide]
- pEC50 [1]: 7.36
- pEC50 [2]: 8.43

Compound: Cc1nnc(-c2c(CCC3CCOCC3)nc3c(c2-c2cc4ccnc(NCc5cccc(F)c5)c4s2)C(=O)N2CCC[C@@H]32)o1 [Compound 70]
- pEC50 [1]: 6.09
- pEC50 [2]: 7.35

Compound: Cc1nnc(-c2c(CCc3ccc(F)cc3)nc3c(c2-c2ccc(C(=O)NCc4ccc(F)c(F)c4)s2)S(=O)(=O)N2CCC[C@@H]32)o1 [Compound 17, (S)—N-(3,4-difluorobenzyl)-5-(2-(4-fluorophenethyl)-3-(5-methyl-1,3,4-oxadiazol-2-yl)-5,5-dioxido-7,8,9,9a-tetrahydropyrrolo[1′,2′:2,3]isothiazolo[4,5-b]pyridin-4-yl)thiophene-2-carboxamide]
- pEC50 [1]: 7.18
- pEC50 [2]: 8.26

Compound: Cc1nnc(-c2c(CCc3ccc(F)cc3)nc3c(c2-c2ccc(C(=O)NCc4ccc(F)c(F)c4)s2)C(=O)N2CCC[C@@H]32)o1 [Compound 4, (S)—N-(3,4-difluorobenzyl)-5-(2-(4-fluorophenethyl)-3-(5-methyl-1,3,4-oxadiazol-2-yl)-5-oxo-7,8,9,9a-tetrahydro-5H-pyrido[2,3-a]pyrrolizin-4-yl)thiophene-2-carboxamide]
- pEC50 [1]: 7.32
- pEC50 [2]: 8.35

Compound: Cc1nnc(-c2c(COc3ccc(F)cc3)nc3c(c2-c2ccc(C(=O)NCc4ccc(F)c(F)c4)s2)C(=O)N2CCC[C@@H]32)o1 [Compound 7, (S)—N-(3,4-difluorobenzyl)-5-(2-((4-fluorophenoxy)methyl)-3-(5-methyl-1,3,4-oxadiazol-2-yl)-5-oxo-7,8,9,9a-tetrahydro-5H-pyrido[2,3-a]pyrrolizin-4-yl)thiophene-2-carboxamide]
- pEC50 [1]: 6.89
- pEC50 [2]: 7.12

Compound: Cc1nnc(-c2c(CCC3CCCOC3)nc3c(c2-c2ccc(C(=O)NCc4ccc(F)c(F)c4)s2)C(=O)N2CCC[C@@H]32)o1 (stereo partly drawn) [Compound 61, N-(3,4-difluorobenzyl)-5-((9aS)-3-(5-methyl-1,3,4-oxadiazol-2-yl)-5-oxo-2-(2-(tetrahydro-2H-pyran-3-yl)ethyl)-7,8,9,9a-tetrahydro-5H-pyrido[2,3-a]pyrrolizin-4-yl)thiophene-2-carboxamide]
- pEC50 [1]: 6.75
- pEC50 [2]: 7.41

Compound: Cc1nnc(-c2c(CCc3ccc(F)cc3)nc3c(c2-c2ccc(C(=O)NCc4ccc(F)c(F)c4)s2)S(=O)(=O)N[C@H]3C(C)C)o1 [Compound 18, (S)—N-(3,4-difluorobenzyl)-5-(5-(4-fluorophenethyl)-3-isopropyl-6-(5-methyl-1,3,4-oxadiazol-2-yl)-1,1-dioxido-2,3-dihydroisothiazolo[4,5-b]pyridin-7-yl)thiophene-2-carboxamide]
- pEC50 [1]: 7.51
- pEC50 [2]: 8.70

Compound: Cc1nnc(-c2c(CCC3CCOCC3)nc3c(c2-c2ccc(C(=O)NCc4ccc(F)c(F)c4)s2)C(=O)N2CCC[C@@H]32)o1 [Compound 29]
- pEC50 [1]: 6.89
- pEC50 [2]: 7.51

Compound: Cc1nnc(-c2c(CCC3CCOCC3)nc3c(c2-c2cc4ccnc(NCc5ccc(F)c(F)c5)c4s2)C(=O)N2CCC[C@@H]32)o1 [Compound 63]
- pEC50 [1]: 7.11
- pEC50 [2]: 8.55

Compound: Cc1nnc(-c2c(CC(C)c3ccc(F)cc3)nc3c(c2-c2ccc(C(=O)NCc4ccc(F)c(F)c4)s2)C(=O)N2CCC[C@@H]32)o1 (stereo partly drawn) [Compound 9, N-(3,4-difluorobenzyl)-5-((9aS)-2-(2-(4-fluorophenyl)propyl)-3-(5-methyl-1,3,4-oxadiazol-2-yl)-5-oxo-7,8,9,9a-tetrahydro-5H-pyrido[2,3-a]pyrrolizin-4-yl)thiophene-2-carboxamide]
- pEC50 [1]: 7.27
- pEC50 [2]: 7.82
